Results reported in patent US20130005988A1, “2-AZETIDINEMETHANEAMINES AND 2-PYRROLIDINEMETHANEAMINES AS TAAR-LIGANDS” (priority 2007, published 2013).

Assays:
TAAR1 [1] = target: T1, TAAR1 (Mus musculus, UniProt Q923Y8); assay: Radioligand Kd used in the TAAR1 binding assay; details: radioligand in the TAAR1 membrane binding assay; species not stated; read-out: calculated Kd value
T1 construct: expressed in transfected cells; host or cells: HEK293 (ATCC #CRL-1573), stably transfected with pIRESneo2 expression plasmid
T1 sequence (Q923Y8 whole entry): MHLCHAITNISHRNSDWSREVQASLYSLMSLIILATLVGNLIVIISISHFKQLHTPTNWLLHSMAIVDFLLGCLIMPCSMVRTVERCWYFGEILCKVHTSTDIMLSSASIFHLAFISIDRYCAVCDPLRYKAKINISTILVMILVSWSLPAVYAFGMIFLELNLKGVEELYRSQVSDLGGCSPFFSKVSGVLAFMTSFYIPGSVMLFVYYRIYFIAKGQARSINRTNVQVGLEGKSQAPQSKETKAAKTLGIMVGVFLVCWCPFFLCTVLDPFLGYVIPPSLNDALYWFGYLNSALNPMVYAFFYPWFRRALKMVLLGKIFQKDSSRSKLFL
Procedure: (§1) For the construction of expression plasmids the coding sequences of human, rat and mouse TAAR 1 were amplified from genomic DNA essentially as described by Lindemann et al.. The Expand High Fidelity PCR System (Roche Diagnostics) was used with 1.5 mM Mg^2+ and purified PCR products were cloned into pCR2.1-TOPO cloning vector (Invitrogen) following the instructions of the manufacturer. PCR products were subcloned into the pIRESneo2 vector (BD Clontech, Palo Alto, Calif.), and expression vectors were sequence verified before introduction in cell lines.
Cells at confluence were rinsed with ice-cold phosphate buffered saline without Ca^2+ and Mg^2+ containing 10 mM EDTA and pelleted by centrifugation at 1000 rpm for 5 min at 4° C. The pellet was then washed twice with ice-cold phosphate buffered saline and cell pellet was frozen immediately by immersion in liquid nitrogen and stored until use at −80° C. […] Protein concentration was determined by the method of Pierce (Rockford, Ill.). […]
Binding assay was performed at 4° C. in a final volume of 1 ml, and with an incubation time of 30 min. […] The tubes and filters were then washed 3 times with 1 ml aliquots of cold buffer B. Filters were not dried and soaked in Ultima gold (45 μl/well, Packard Instrument Company) and bound radioactivity was counted by a TopCount Microplate Scintillation Counter (Packard Instrument Company).

TAAR1 [2] = target: T1, TAAR1; assay: Radioligand binding on membranes of HEK293 cells stably expressing TAAR1; details: radioligand [3H]-rac-2-(1,2,3,4-tetrahydro-1-naphthyl)-2-imidazoline at 60 nM, 4° C., 30 min
Procedure: as §1
HEK293 cells (ATCC #CRL-1573) were cultured essentially as described Lindemann et al. (2005). For the generation of stably transfected cell lines HEK293 cells were transfected with the pIRESneo2 expression plasmids containing the TAAR coding sequences (described above) with Lipofectamine 2000 (Invitrogen) according to the instructions of the manufacturer, and 24 hrs post transfection the culture medium was supplemented with 1 mg/ml G418 (Sigma, Buchs, Switzerland). After a culture period of about 10 d clones were isolated, expanded and tested for responsiveness to trace amines (all compounds purchased from Sigma) with the cAMP Biotrak Enzyme immunoassay (EIA) System (Amersham) following the non-acetylation EIA procedure provided by the manufacturer.
Cells at confluence were rinsed with ice-cold phosphate buffered saline without Ca^2+ and Mg^2+ containing 10 mM EDTA and pelleted by centrifugation at 1000 rpm for 5 min at 4° C. The pellet was then washed twice with ice-cold phosphate buffered saline and cell pellet was frozen immediately by immersion in liquid nitrogen and stored until use at −80° C. Cell pellet was then suspended in 20 ml HEPES-NaOH (20 mM), pH 7.4 containing 10 mM EDTA, and homogenized with a Polytron (PT 3000, Kinematica) at 10,000 rpm for 10 s. The homogenate was centrifuged at 48,000×g for 30 min at 4° C. and the pellet resuspended in 20 ml HEPES-NaOH (20 mM), pH 7.4 containing 0.1 mM EDTA (buffer A), and homogenized with a Polytron at 10,000 rpm for 10 s. The homogenate was then centrifuged at 48,000×g for 30 min at 4° C. and the pellet resuspended in 20 ml buffer A, and homogenized with a Polytron at 10,000 rpm for 10 s. Protein concentration was determined by the method of Pierce (Rockford, Ill.). The homogenate was then centrifuged at 48,000×g for 10 min at 4° C., resuspended in HEPES-NaOH (20 mM), pH 7.0 including MgCl2 (10 mM) and […] homogenized with a Polytron at 10,000 rpm for 10 s.
Binding assay was performed at 4° C. in a final volume of 1 ml, and with an incubation time of 30 min. The radioligand [^3H]-rac-2-(1,2,3,4-tetrahydro-1-naphthyl)-2-imidazoline was used at a concentration equal to the calculated Kd value of 60 nM to give a bound at around 0.1% of the total added radioligand concentration, and a specific binding which represented approximately 70-80% of the total binding. Non-specific binding was defined as the amount of [^3H]-rac-2-(1,2,3,4-tetrahydro-1-naphthyl)-2-imidazoline bound in the presence of the appropriate unlabelled ligand (10 μM). Competing ligands were tested in a wide range of concentrations (10 pM-30 μM). […] Each experiment was performed in duplicate. All incubations were terminated by rapid filtration through UniFilter-96 plates (Packard Instrument Company) and glass filter GF/C, pre-soaked for at least 2 h in polyethylenimine 0.3%, and using a Filtermate 96 Cell Harvester (Packard Instrument Company). The tubes and filters were then washed 3 times with 1 ml aliquots of cold buffer B. Filters were not dried and soaked in Ultima gold (45 μl/well, Packard Instrument Company) and bound radioactivity was counted by a TopCount Microplate Scintillation Counter (Packard Instrument Company).

| SMILES | Ki (TAAR1 [2]) [µM] | Kd (TAAR1 [1]) [nM] |
| --- | --- | --- |
| c1ccc2c(c1)CCCC2C1=NCCN1 (racemic) [[^3H]-rac-2-(1,2,3,4-tetrahydro-1-naphthyl)-2-imidazoline] | – | 60 |
| CCN(C[C@H]1CCCN1)c1cccc(Oc2ccccc2)c1 [Example 3, Ethyl-(3-phenoxy-phenyl)-(R)-1-pyrrolidin-2-ylmethyl-amine] | 0.0044 | – |
| CCN(C[C@@H]1CCCN1)c1cccc(Oc2ccccc2)c1 [Example 4, Ethyl-(3-phenoxy-phenyl)-(S)-1-pyrrolidin-2-ylmethyl-amine] | 0.0172 | – |
| COc1cc(N(C[C@@H]2CCCN2)C(C)C)ccc1Cl [Example 12, (4-Chloro-3-methoxy-phenyl)-isopropyl-(S)-1-pyrrolidin-2-ylmethyl-amine] | 0.0213 | – |
| CC(C)N(C[C@@H]1CCCN1)c1ccc(Cl)c(Cl)c1 [Example 13, (3,4-Dichloro-phenyl)-isopropyl-(S)-1-pyrrolidin-2-ylmethyl-amine] | 0.005 | – |
| CCN(C[C@@H]1CCN1)c1cccc(OC)c1 [Example 19, (S)-1-Azetidin-2-ylmethyl-ethyl-(3-methoxy-phenyl)-amine] | 0.0137 | – |
| CN(C[C@@H]1CCN1)c1ccc(Cl)cc1 [Example 21, (S)-1-Azetidin-2-ylmethyl-(4-chloro-phenyl)-methyl-amine] | 0.021 | – |

Continued by falling Ki (TAAR1 [2]), values first:

| Ki (TAAR1 [2]) [µM] | SMILES | Kd (TAAR1 [1]) [nM] |
| --- | --- | --- |
| 0.0859 | COc1cc(N(C)C[C@@H]2CCCN2)ccc1Cl [Example 8, (4-Chloro-3-methoxy-phenyl)-methyl-(8)-1-pyrrolidin-2-ylmethyl-amine] | – |
| 0.041 | CC(C)N(C[C@@H]1CCN1)c1ccc(Cl)cc1 [Example 22, (S)-1-Azetidin-2-ylmethyl-(4-chloro-phenyl)-isopropyl-amine] | – |
| 0.0131 | CCN(C[C@@H]1CCCN1)c1ccc(Cl)cc1 [Example 11, (4-Chloro-phenyl)-ethyl-(8)-1-pyrrolidin-2-ylmethyl-amine] | – |
| 0.0107 | Clc1ccc(N(Cc2ccccc2)C[C@@H]2CCN2)cc1 [Example 23, (S)-1-Azetidin-2-ylmethyl-benzyl-(4-chloro-phenyl)-amine] | – |
| 0.0092 | CCN(C[C@@H]1CCCN1)c1ccc(Cl)c(OC)c1 [Example 9, (4-Chloro-3-methoxy-phenyl)-ethyl-(8)-1-pyrrolidin-2-ylmethyl-amine] | – |
| 0.0092 | CCN(C[C@@H]1CCN1)c1ccccc1 [Example 18, (S)-1-Azetidin-2-ylmethyl-ethyl-phenyl-amine] | – |
| 0.0056 | CCN(C[C@H]1CCCN1)c1ccc(Cl)cc1 [Example 16, (4-Chloro-phenyl)-ethyl-(R)-1-pyrrolidin-2-ylmethyl-amine] | – |
| 0.0047 | CCN(C[C@@H]1CCN1)c1cccc(Br)c1 [Example 20, (S)-1-Azetidin-2-ylmethyl-(3-bromo-phenyl)-ethyl-amine] | – |
| 0.0028 | CCN(C[C@@H]1CCCN1)c1ccc(Cl)c(Cl)c1 [Example 6, (3,4-Dichloro-phenyl)-ethyl-(S)-1-pyrrolidin-2-ylmethyl-amine] | – |
